Laboratory results taken from PMC8979514 (Journal of Enzyme Inhibition and Medicinal Chemistry, 2022).

Tests used:
[1] = in vitro; assay type: cell-based, human; settings: human, Cells viability of SH-SY5Y cell line (% of control)
Experimental: (§1) Human neuroblastoma SH-SY5Y and human liver hepatocellular HepG2 cell lines were purchased from the American Type Culture Collections (ATCC). SH-SY5Y cells were cultured in a Dulbecco’s Modified Eagle Medium (DMEM) supplemented with Ham F12 medium (ratio 1:1), whereas HepG2 cells in Eagle’s Minimum Essential Medium (EMEM). Additionally, all culture medium was supplemented with 10% foetal bovine serum (FBS), streptomycin (100 µg/mL) and penicillin (100 U/mL). The cells were seeded into flasks containing supplemented medium and maintained in a humidified atmosphere of 5% CO2 and 95% air at 37 °C. The cell viability assay was performed in confluence of the cells in serum free medium (without FBS) was 80–90%.
(§2) […]. SH-SY5Y cells and HepG2 cells were seeded on 96-well plate with a density of 27–29 × 10^3 cells/well and 12–14 × 10^3/well respectively. […]. The DMSO concentration of every well in final dilutions was equal to or less than 0.1%. After incubation with compounds, MTT was added and 2 h later, the absorbance was measured at 492 nm. The result was expressed as the percentage of control cells (cultured in serum-free medium containing 0.1% of DMSO) which was set to 100%. The MTT test was performed in three independent replications. Data analysis was performed by using GraphPad Prism 5.0 Software.
SH-SY5Y a standard cell line used for determining neurocytotoxic effect of potential drug. Moreover it is well-established in vitro model of neurodegenerative disorders. […].

[2] = in vitro; assay type: cell-based, human; settings: human
Experimental: as §1, §2
. HepG2 is a commonly used in vitro model for the investigation of hepatocytotoxic effect of xenobiotics [40]^,[41]. In our study, we evaluated the toxicity of our new analogs against […]. […]

[3] = cited from earlier work

Structure (SMILES): Nc1c2c(nc3ccccc13)CCCC2 [Tacrine, 9-amino-1,2,3,4-tetrahydroacridine, reference compound]
- viability at 12.5 µM [1]: 98.7 ± 4.5%
- viability at 50 µM [1]: 97.2 ± 2.1%
- viability at 100 µM [1]: 68.9 ± 2.9%
- IC50 [2]: 190 µM
- bioavailability of the oral formulation [3]: 9.9–36.4%
